Results from patent publication US20220002816A1, “IDENTIFICATION OF JUND TARGET GENES FOR INHIBITION OF PROSTATE CANCER CELL GROWTH” (Center for Cancer Research & Therapeutic Development, Clark …, priority 2018, published 2022).

Experiments:
Format in all cases: cell-based, Human
[1] = system: DU145 vector cells; test: Cell proliferation assay (cell counting) after JQ1 treatment; conditions: 5 μM JQ1, 72 hrs, vs DMSO control, p<0.001
Experimental: (§1) Human prostate cancer cell lines (PC3 and DU145) were purchased from ATCC (Manassas, Va.). Cells were cultured in the recommended growth media [MEM media supplemented with 5% fetal bovine serum (FBS)] in 100% humidity at 37° C. with 5% CO2 as described previously. DU145 cells overexpressing JunD (D1), generated from a previous study were cultured as above, with an addition of […] G418 [29].
(§2) DU145 vector and DU145 JunD overexpressed (D1) cells plated at a density of 2×10^4 cells/ml in 24 well plates (for cell proliferation assays) or at a density of 1.5×10^5 cell/ml in 6 well plates (for cell lysates) were treated in the presence or absence of 5 μM JQ1 for 72 hrs. Control cells were treated with DMSO. Cells were then counted using a hemacytometer and cell lysates were collected for western blot analyses.

[2] = system: DU145 JunD overexpressed (D1) cells; test: as above; conditions: 5 μM JQ1, 72 hrs, DU145 D1 (JunD overexpressing) cells, vs DMSO control, p<0.001
Experimental: as §1, §2

[3] = system: JunD target genes protein levels in DU145 JunD overexpressed (D1) cells; test: Western blot of JunD target gene protein levels after JQ1 treatment; conditions: 5 μM JQ1, 72 hrs
Experimental: as §2
(§3) Following siRNA transient transfections, PC3 and DU145 cell lysates from several independent experiments were collected as previously described. In brief, equal amounts of protein (50 μg) were separated by electrophoresis using 10% SDS-polyacrylamide gels and then transferred to PVDF membranes (Millipore, Billerica, Mass.). After being blocked with 5% milk, the membranes were incubated with specific primary antibodies (1:800 dilution for JunD; 1:500 dilution for anti-PRDX3, anti-CDK2, anti-CDK4, anti-KIF2C, anti-EIF1, anti-PEA15, anti-CCNA1, anti-ADRA2B, anti-TCF4, anti-ANAX2, anti-ELMO2, and anti-ERO1-La; 1:200 dilution for anti-PLCD4, anti-c-MYC, and anti-PTMA; 1:3000 dilution for anti-α-Tubulin) overnight at 4° C. and then incubated with appropriate horseradish peroxidase-conjugated secondary antibody for 1 h. […] The relative intensities of specific protein were determined by ImageJ software (NIH version: 1.8.0_112).

[4] = system: JunD target genes protein levels in DU145 vector cells; test: as above; conditions: 5 μM JQ1, 72 hrs
Experimental: as §2, §3

Which cell proliferation [1] does the source give for `Cc1sc2c(c1C)C(c1ccc(Cl)cc1)=N[C@@H](CC(=O)OC(C)(C)C)c1nnc(C)n1-2` [JQ1] here?
Its cell proliferation is “significantly reduced”.

What about the cell proliferation [2] of the same compound?
The cell proliferation was “significantly reduced”.

What about the “JunD target genes protein levels” value [3] of the same compound?
Its value is “decreased”.

And the “JunD target genes protein levels” value [4]?
Its value is “decreased”.
